Reference: patent US6790825B2, “Method of using secretin and compositions made therefrom for the treatment of autism and other neurological, behavioral and immunological disorders” (Repligen Corporation, priority 1997, dated 2004)
Entries after “also recorded” stand apart in the source; their conditions may differ. No end group written: not given here.

Columns and labels:
pancreas = test: Pancreatic juice release after secretin infusion during upper gastrointestinal endoscopy (Example 1); type: in vivo, human; conditions: immediately after 2 CU/kg i.v. over one minute; usual rate 1-2 ml/min
Procedure: (§1) When the patient was […], the secretin was administered by way of an infusion as part of an upper gastrointestinal endoscopy. The secretin was used in this diagnostic procedure at the request of the patient's parents, one of which is an inventor of the present invention. The secretin used in this procedure is known as Secretin-Ferring available from Ferring Laboratories, Inc., Suffern, N.Y. (See Appendix A). The secretin was dissolved in a […] solution of sodium chloride and administered in a dosage of 2 clinical units (CU) per kilogram (kg) body weight by intravenous injection over one minute. (I.E. 30 IU IV for approximately 15 kilograms of body weight.)
(§2) The diagnostic tests performed on the patient during this procedure also indicated gastric inflammation. […] The following Table I summarizes the improvements observed in the patient within 3 weeks after the infusion of secretin.

[1] = system: patient, a child with symptoms of autism; test: Intravenous secretin infusion in a child with symptoms of autism (Example 1): behavioral and biomedical changes; type: in vivo, human
From the text: The present invention will be better understood from the following examples which are given by way of illustration and not by way of limitation. The patient, the same in both examples, is a child with symptoms of autism.
The patient in the present examples developed normally […], with the exception of gastrointestinal problems (i.e., chronic diarrhea and constipation) which began at about six months. At about thirteen months, when whole milk was introduced into their diet, the patient began having reoccurring ear infections. At about fourteen months, the patient appeared to lose the ability to process language, first receptively (at about 14 months) then expressively (at about 16 months). The patient also experienced episodes of “shivers” that appeared to be intermittent seizures.
After consulting with numerous neurologists, pediatricians, child development specialists, audiologists, endocrinologists, allergists, and other medical professionals, no consistent diagnosis had been reached. […] The term autism is used herein for reference purposes only, and this invention is intended to apply to any number of pervasive developmental disorders as well as neurological and immunological disorders.
as §1, §2
Biomedical changes were also measured in the patient.
At the request of the patient's parents, a second infusion of secretin was performed about 9 months after the first infusion, and a third infusion of secretin was performed about three months after the second infusion.

abnormal opioid peptides = conditions: autistic children that responded to casein free and gluten free diet; measured before and after infusion; cited from earlier work
[2] = system: patient, a child with symptoms of autism; test: Daily transdermal secretin with DMSO in the same patient (Example 2); type: in vivo, human
Procedure: At the time of this treatment, the patient was […]. Secretin was administered transdermally using pharmaceutical grade dimethyl sulfoxide (DMSO) (generally 99.9% pure) available from Clinic Service Co., Box 2512, Hemet Calif. 92543. The secretin (Secretin-Ferring) was administered daily in a dosage of about 75 CU over a five day period (i.e., about 15 CU daily). For each treatment, about 4 drops of DMSO were placed onto the skin of the patient, about 15 CU of the crystalline secretin was placed onto the DMSO, and the composition was rubbed into the skin.

## secretin (HSDGTFTSELSRLRDSARLQRLLQGLV-NH2; ends and bridges not checked; UniProt P63298 33-59, looked up) [polypeptide hormone secreted by the mucosa of the duodenum and upper jejunum; used as Secretin-Ferring from Ferring Laboratories]
pancreas
  Amount of pancreatic juice released: approximately 10 ml/min
[1]; after the infusion
  SPECT scan: perfusion of the right posterior parietal and right temporal lobes (blood flow in the brain): improved; also recorded: increased blood flow in the brain
[1]; after the secretin administration in Example 1
  Measles, mumps and rubella antibodies: reduction of measles, mumps and rubella antibodies
[1]; after the treatment, dropped from 5.8 before
  Rubella titers: 2.3
[1]; at about 5 weeks after the first infusion, behavioral improvements continued
  Rate of the patient's progress: appeared to decrease
[1]; before infusion: Abnormal bowel movements, 2 CU/kg i.v.
  Progress within 3 weeks after the secretin infusion: bowel movements: Normal bowel movements.
[1]; before infusion: Consistent sleeping problems, up numerous times each night, 2 CU/kg i.v.
  Progress within 3 weeks after the secretin infusion: sleeping problems: Has slept through almost every night
[1]; before infusion: Diapers only, 2 CU/kg i.v.
  Progress within 3 weeks after the secretin infusion: toilet training: Completely potty trained.
[1]; before infusion: Did not imitate commands, 2 CU/kg i.v.
  Progress within 3 weeks after the secretin infusion: imitation of commands: Will imitate almost any multi-step
[1]; before infusion: Infrequent (1-2 times/week) spinning episodes, 2 CU/kg i.v.
  Progress within 3 weeks after the secretin infusion: spinning episodes: No spinning episodes.
[1]; before infusion: Limited Diet Preferences, 2 CU/kg i.v.
  Progress within 3 weeks after the secretin infusion: diet preferences: No Change
[1]; before infusion: Minimal eye contact, 2 CU/kg i.v.
  Progress within 3 weeks after the secretin infusion: eye contact: Eye contact 75% of the time.
[1]; before infusion: No apparent connections made, 2 CU/kg i.v.
  Progress within 3 weeks after the secretin infusion: connections between language and objects: Many connections made between
[1]; before infusion: No flash cards, 2 CU/kg i.v.
  Progress within 3 weeks after the secretin infusion: flash cards: 40-50 flash cards.
[1]; before infusion: No interest in drawing, 2 CU/kg i.v.
  Progress within 3 weeks after the secretin infusion: interest in drawing: Wants to draw constantly. Will draw
[1]; before infusion: No response, 2 CU/kg i.v.
  Progress within 3 weeks after the secretin infusion: response to request for gestures: Responds to all kinds of things
[1]; before infusion: No sentences, 2 CU/kg i.v.
  Progress within 3 weeks after the secretin infusion: sentences: Short sentences - such as; “I love you”,
[1]; before infusion: Two words, 2 CU/kg i.v.
  Progress within 3 weeks after the secretin infusion: words spoken: 100's of words - will repeat some
[1]; before infusion: Watch Videos, 2 CU/kg i.v.
  Progress within 3 weeks after the secretin infusion: interaction with videos: Now, gets “involved” interactively
[1]; blood tests after the treatment
  Serotonin levels in blood: rise in serotonin levels; also recorded: increase in serotonin levels
[1]; no change, before infusion: excessive, approximately 50 cups per day, 2 CU/kg i.v.
  Progress within 3 weeks after the secretin infusion: water consumption: change approximately 50 cups per cups per day
[1]; second about 9 months after the first, third about three months after the second
  Results of second and third infusions: achieved the same results
[1]; within days after administration, no change of diet
  Chronic abnormal bowel movements: became normal
Abnormal opioid peptides
  Abnormal opioid peptides after the secretin infusion: disappeared
[2]; about 15 CU daily with about 4 drops DMSO rubbed into the skin, compared with infusion
  Improvements in the patient on daily transdermal administration: even more dramatic and significant improvements
[2]; daily transdermal dose stopped
  Effect of stopping the daily dose: autistic behavioral symptoms return
[2]; within about 6 months, about 15 CU daily transdermally with DMSO
  Language progress: progressed to spontaneous and conversational language
